Experimental data reported in PMC9501633, “Synthesis, Characterisation and Mechanism of Action of Anticancer 3-Fluoroazetidin-2-ones” (Pharmaceuticals, 2022).
Several values for one entry are separate records, joined by “and”; a condition that tells them apart may be missing. Equal values may be shown once. Read-outs that look alike come from different tables or passages of the source.

Experiments:
SW-480 cells = assay: AlamarBlue cell viability assay; format: cell-based
Protocol: Compound # (Treatment Concentration µM) […]
different para-substituent ring B 26-29; 3-fluoro β-lactam compounds containing different meta-substituent ring B 30, 33-35; (B) 3,3-difluoro β-lactam compounds containing different para-substituent ring B 36-39; 3,3-difluoro β-lactam compounds containing different meta-substituent […]
ring B 40, 42-45 in SW-480 cancer cells.
Cell proliferation of MCF-7 cells was determined with an alamarBlue assay (seeding density […]
Compound concentrations of either 10 μM or 1 μM for 72 h were used to treat the cells with control wells containing vehicle ethanol (1%

NCI 60 cell line panel = assay: NCI 60 cell line screen, whole panel; format: cell-based; conditions: for MG-MID TGI / GI50 / CC50: 48 h; for GI50: read-out: MG-MID GI50
Protocol: The antiproliferative effects of selected compounds 33, 37 and 43 were initially evaluated in the NCI 60 cell line screen at 10 μM concentration (see Supplementary Materials Table S3). […] . […] .
Compound 33 was next selected for evaluation in the NCI 60 cell line five-dose screen. The GI50 (50% growth inhibition), TGI (total growth inhibition) and LC50 (50% lethal concentration) were determined in the NCI panel of 60 cell lines, using the sulphorhodamine B (SRB) protein assay (Table 5). The GI50 value provides the growth inhibition of the selected compound, while the cytotoxic effect is evaluated in the LC50 value. […] . […] . Glioblastoma is an aggressive and fast-growing brain tumour with a median survival time of 9–16 months from diagnosis, and these tumours quickly evolve resistance to temozolomide chemotherapy, which is the only FDA-approved treatment. […] . Further mechanistic and cellular studies were carried out and are described below.
(§1) aData obtained from NCI in vitro human tumour cell screen 1 dose assay (10 µM). 33 (NCI

MCF-7 cells = assay: Immunofluorescence confocal microscopy of the microtubule network; format: cell-based, human; conditions: MCF-7, 16 h; 33 0.1, 0.5 and 1.0 μM; paclitaxel 1.0 μM; CA-4 0.01 μM
Protocol: The tubulin-targeting effect of compound 33 on the microtubule network of MCF-7 cells was further evaluated by immunofluorescence studies to identify the cellular effects that are relevant to its mechanism of action by inhibiting the polymerisation of tubulin. […] Treatment of MCF-7 cells with compound 33 (0.1, 0.5 and 1.0 μM) induced cell rounding and distinct abnormalities of the spindle formation as well as a loss of the structured tubulin that impacts the microtubule network structure in a dose-dependent manner.
Confocal microscopy was used to determine the effects of novel compound 33 and standard drugs on the MCF-7 cytoskeleton according to the protocols we previously described. For the immunofluorescence study, MCF-7 cells were seeded at 1 × 10^5 cells/mL using eight chamber glass slides (BD Biosciences). The cells were treated with vehicle control (1% ethanol (v/v)), CA-4 (0.01 μM), paclitaxel (1 µM) and 33 (0.1 µM, 0.5 µM and 1 µM) for 16 h. The cells were gently washed in PBS, fixed with 4% paraformaldehyde in PBS (20 min) and permeabilised in 0.5% Triton X-100. After further washes in PBS (containing 0.1% Tween (PBST)), cells were blocked with 5% bovine serum albumin which was diluted with PBST. Cells were incubated with mouse monoclonal anti-α-tubulin–FITC antibody (clone DM1A) (Sigma) (1:100) at 20 °C for 2 h and then washed in PBST and incubated with Alexa Fluor 488 dye (1:500) for 1 h at 20 °C. Cells were washed in PBST and mounted in Ultra Cruz Mounting Media (Santa Cruz Biotechnology, Santa Cruz, CA, USA) containing 4,6-diamino-2-phenolindol dihydrochloride (DAPI). The images were captured by Leica SP8 confocal microscopy with Leica Application Suite X software. Experiments were performed on three independent occasions and images were collected on the same day using identical parameters.
Figure 8 Compound 33 acts as depolymeriser of the microtubule network of MCF-7 breast cancer cells. Cells were treated with vehicle control ([…]), CA-4 (0.01 μM), paclitaxel (1 μM) or compound 33 (0.1, 0.5 and 1 μM) for 16 h. […]

SNB-19 = assay: NCI 60 cell line screen, CNS; format: cell-based, human
leukaemia panel = assay: NCI 60 cell line one-dose screen, panel mean; format: cell-based; conditions: Homo sapiens, one dose 10 μM, read-out: mean growth inhibition
Protocol: The antiproliferative effects of selected compounds 33, 37 and 43 were initially evaluated in the NCI 60 cell line screen at 10 μM concentration (see Supplementary Materials Table S3).
as §1

U251 = assay: NCI 60 cell line screen, CNS; format: cell-based, human
HCT-116 = assay: NCI 60 cell line screen, Colon; format: cell-based, human
MDA-MB-231/ATCC = assay: NCI 60 cell line screen, Breast; format: cell-based, human
T-47D = assay: NCI 60 cell line screen, Breast; format: cell-based, human
LOX IMVI = assay: NCI 60 cell line screen, Melanoma; format: cell-based, human
CCRF-CEM = assay: NCI 60 cell line screen, Leukaemia; format: cell-based, human
SK-MEL-28 = assay: NCI 60 cell line screen, Melanoma; format: cell-based, human
SF-539 = assay: NCI 60 cell line screen, CNS; format: cell-based, human
HS 578T = assay: NCI 60 cell line screen, Breast; format: cell-based, human
SK-MEL-5 = assay: NCI 60 cell line screen, Melanoma; format: cell-based, human
[1] = 5-dose assay, mean-graph midpoint
[2] = Homo sapiens, 60 cell, 5-dose assay, mean-graph midpoint

## COc1ccc(/C=C\c2cc(OC)c(OC)c(OC)c2)cc1O [CA-4, combretastatin A-4, reference compound]
SW-480 cells; Homo sapiens, SW480 cells
  IC50: 6.3 ± 0.6 nM
NCI 60 cell line panel; [1]
  MG-MID TGI: 10300 nM
NCI 60 cell line panel; [2]
  GI50: 99 nM
MCF-7 cells
  effect on the microtubule network: depolymerisation and destabilisation

## COc1ccc(C2C(F)C(=O)N2c2cc(OC)c(OC)c(OC)c2)cc1F (stereo not shown) [Compound 33, 3-Fluoro-4-(3-fluoro-4-methoxyphenyl)-1-(3,4,5-trimethoxyphenyl)azetidin-2-one]
SNB-19; 5-dose, 48 h
  TGI: >100000 nM
SNB-19; Homo sapiens, 5-dose, 48 h
  GI50: 302 nM
SNB-19; Homo sapiens, one dose 10 µM
  inhibition at 10 µM: 66%
SNB-19; one dose 10 µM
  Growth %: 34.05%
Leukaemia panel
  inhibition at 10 µM: 90.6%
U251; 5-dose, 48 h
  TGI: >100000 nM
U251; Homo sapiens, U-251, 5-dose, 48 h
  GI50: 23.6 nM
U251; Homo sapiens, U-251, one dose 10 µM
  inhibition at 10 µM: 88.1%
U251; one dose 10 µM
  Growth %: 11.86%
HCT-116; 5-dose, 48 h
  TGI: >100000 nM
HCT-116; Homo sapiens, 5-dose, 48 h
  GI50: 32.5 nM
HCT-116; Homo sapiens, one dose 10 µM
  inhibition at 10 µM: 94.4%
HCT-116; one dose 10 µM
  Growth %: 5.59%
MDA-MB-231/ATCC; 5-dose, 48 h
  TGI: >100000 nM
MDA-MB-231/ATCC; Homo sapiens, 5-dose, 48 h
  GI50: 355 nM
MDA-MB-231/ATCC; Homo sapiens, one dose 10 µM
  inhibition at 10 µM: 80.3%
MDA-MB-231/ATCC; one dose 10 µM
  Growth %: 19.65%
SW-480 cells; SW-480, 10 μM, 72 h
  cells remaining: 62%
NCI 60 cell line panel; [1]
  MG-MID TGI: 52480 nM and 52400 nM
  GI50: 223 nM
NCI 60 cell line panel; [2]
  GI50: 224 nM
NCI 60 cell line panel; Homo sapiens, 60 cell, one dose 10 μM, mean over the 60 cell lines, read-out: mean growth inhibition
  inhibition at 10 µM: 76.3%
NCI 60 cell line panel; Homo sapiens, 60 cell, 5-dose assay, mean-graph midpoint, read-out: MG-MID LC50
  CC50: 95500 nM
NCI 60 cell line panel; Homo sapiens, all cell lines except COLO 205 and SK-MEL-5, 5-dose, read-out: LC50 (the source's name)
  CC50: > 100000 nM
NCI 60 cell line panel; one dose 10 µM, mean over the cell lines
  mean Growth %: 23.66%
T-47D; 5-dose, 48 h
  TGI: >100000 nM
T-47D; Homo sapiens, T47D, one dose 10 µM
  inhibition at 10 µM: 25.1%
T-47D; one dose 10 µM
  Growth %: 74.94%
LOX IMVI; 5-dose, 48 h
  TGI: >100000 nM
LOX IMVI; Homo sapiens, 5-dose, 48 h
  GI50: 90.4 nM
LOX IMVI; Homo sapiens, one dose 10 µM
  inhibition at 10 µM: 76%
LOX IMVI; one dose 10 µM
  Growth %: 23.98%
CCRF-CEM; 5-dose, 48 h
  TGI: >100000 nM
CCRF-CEM; Homo sapiens, 5-dose, 48 h
  GI50: 47.1 nM
CCRF-CEM; Homo sapiens, one dose 10 µM
  inhibition at 10 µM: 86.8%
CCRF-CEM; one dose 10 µM
  Growth %: 13.16%
MCF-7 cells
  effect on the microtubule network: destabilising microtubules
SK-MEL-28; 5-dose, 48 h
  TGI: >100000 nM
SK-MEL-28; Homo sapiens, 5-dose, 48 h
  GI50: 15800 nM
SK-MEL-28; Homo sapiens, one dose 10 µM
  inhibition at 10 µM: 42.3%
SK-MEL-28; one dose 10 µM
  Growth %: 57.74%
SF-539; 5-dose, 48 h
  TGI: 217 nM
SF-539; Homo sapiens, 5-dose, 48 h
  GI50: 28 nM
SF-539; Homo sapiens, one dose 10 µM
  inhibition at 10 µM: 95.8%
SF-539; one dose 10 µM
  Growth %: 4.17%
HS 578T; 5-dose, 48 h
  TGI: >100000 nM
HS 578T; Homo sapiens, 5-dose, 48 h
  GI50: 295 nM
HS 578T; Homo sapiens, one dose 10 µM
  inhibition at 10 µM: 74.5%
HS 578T; one dose 10 µM
  Growth %: 25.54%
SK-MEL-5; 5-dose, 48 h
  TGI: 350 nM
SK-MEL-5; Homo sapiens, 5-dose, 48 h
  GI50: 45.6 nM
SK-MEL-5; Homo sapiens, 5-dose, 48 h, read-out: LC50 (the source's name)
  CC50: 91300 nM
SK-MEL-5; Homo sapiens, one dose 10 µM
  inhibition at 10 µM: 131%
SK-MEL-5; one dose 10 µM
  Growth %: -31.46%
